From article PMC3268193 (British Journal of Pharmacology, 2012)
Positions count from the first letter of the chain named.

Experiments:
Assay type in all cases: cell-based
P2X1 Cys2(3-4) chimera = molecular target: T1, P2X1 Cys2(3-4) chimera (Homo sapiens, UniProt P51575, A137L/A141G/I144L/K136E/K138D/K140L/K148R/P134A/Q142N/R139M/T133V); test: Two-electrode voltage clamp, chimera P2X1 Cys2
T1 sequence (P51575 1-399 T133V/P134A/K136E/A137L/K138D/R139M/K140L/A141G/Q142N/I144L/K148R): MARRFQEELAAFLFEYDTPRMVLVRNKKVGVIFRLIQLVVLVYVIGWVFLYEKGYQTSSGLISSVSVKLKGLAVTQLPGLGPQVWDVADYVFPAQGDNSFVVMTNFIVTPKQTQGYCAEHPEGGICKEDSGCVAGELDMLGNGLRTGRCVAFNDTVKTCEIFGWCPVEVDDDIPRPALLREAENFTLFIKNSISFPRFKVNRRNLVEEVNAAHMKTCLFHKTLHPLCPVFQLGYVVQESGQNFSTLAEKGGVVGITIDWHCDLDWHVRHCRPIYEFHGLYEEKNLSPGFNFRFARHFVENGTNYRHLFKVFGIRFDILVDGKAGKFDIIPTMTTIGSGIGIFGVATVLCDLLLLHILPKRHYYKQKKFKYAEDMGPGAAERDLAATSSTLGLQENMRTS

[1] = molecular target: T2, P2X1 receptor mutant KAKRK → EADRK(2) (Homo sapiens, UniProt P51575, K136E/K138D); test: Two-electrode voltage clamp, P2X1 mutant X1-EADRK
T2 sequence (P51575 1-399 K136E/K138D): T1 sequence (P51575 1-399 T133V/P134A/K136E/A137L/K138D/R139M/K140L/A141G/Q142N/I144L/K148R) with V133T, A134P, L137A, M139R, L140K, G141A, N142Q, L144I, R148K

[2] = molecular target: T3, P2X1 receptor mutant KAKRK → EADML(4) (Homo sapiens, UniProt P51575, K136E/K138D/K140L/R139M); test: Two-electrode voltage clamp, P2X1 mutant X1-EADML
T3 sequence (P51575 1-399 K136E/K138D/R139M/K140L): T1 sequence (P51575 1-399 T133V/P134A/K136E/A137L/K138D/R139M/K140L/A141G/Q142N/I144L/K148R) with V133T, A134P, L137A, G141A, N142Q, L144I, R148K

O=C(Nc1cc(C(=O)Nc2ccc(S(=O)(=O)O)cc2S(=O)(=O)O)cc(C(=O)Nc2ccc(S(=O)(=O)O)cc2S(=O)(=O)O)c1)Nc1cc(C(=O)Nc2ccc(S(=O)(=O)O)cc2S(=O)(=O)O)cc(C(=O)Nc2ccc(S(=O)(=O)O)cc2S(=O)(=O)O)c1 [NF449, 4,4′,4′′,4′′′-(carbonylbis(imino-5,1,3-benzenetriyl-bis(carbonylimino)))tetrakis-benzene-1,3-disulphonic acid]
Decrease in NF449 sensitivity compared with P2X1 WT (P2X1 Cys2(3-4) chimera): ~1700 fold
Extra decrease in NF449 sensitivity compared with the K138D mutant [1]: ~15 fold
Reduction in NF449 sensitivity compared with WT P2X1 [2]: ~600 fold
